Experimental data from the NIST ThermoML archive (doi:10.1021/je500433d).
Where “and” joins values, the source holds several entries; their conditions need not be identical. Equal entries are not always repeated.

Conditions: Liquid, Alternating current cell with electrodes

[Be+2].[Cl-].[Cl-] [beryllium chloride]
Conditions | electrical conductivity [S/m]
693.15 K | 74.7
695.15 K | 80.5
698.65 K | 87.7
701.65 K | 96.1
705.65 K | 107
711.65 K | 132
714.65 K | 143
719.65 K | 165
721.65 K | 174
724.65 K | 186
726.15 K | 193
728.15 K | 202
735.65 K | 253
738.15 K | 270
739.65 K | 288
741.65 K | 297
744.65 K | 327
746.15 K | 335
747.15 K | 348
750.15 K | 376
752.15 K | 398
755.15 K | 437
759.65 K | 454
761.15 K | 488
763.15 K | 505
765.15 K | 531
766.35 K | 545
767.35 K | 572
770.15 K | 610
772.85 K | 636
775.15 K | 670
777.65 K | 707
781.65 K | 730
783.65 K | 763
786.15 K | 824
787.15 K | 836
788.15 K | 851
790.15 K | 887
793.15 K | 935
795.15 K | 954
795.65 K | 966
797.15 K | 1010
801.65 K | 1090
807.65 K | 1160
809.65 K | 1180
822.65 K | 1390

[Cl][Pb][Cl] [lead(2+) dichloride]
Conditions | electrical conductivity [S/m]
783.15 K | 150
800.15 K | 159
824.15 K | 170
854.15 K | 185
883.15 K | 197
913.15 K | 210
943.15 K | 221
972.15 K | 233
1001.1 K | 244
1030.2 K | 254
1058.2 K | 263
1090.2 K | 272
1118.2 K | 279
1149.2 K | 286
1177.2 K | 292
1210.2 K | 298
1230.2 K | 302
1254.2 K | 309
1279.2 K | 315
1297.2 K | 318
1320.2 K | 321

[Cl-].[Cl-].[Zn+2] [zinc chloride]
Conditions | electrical conductivity
558.15 K | 0.0363 S/m
568.15 K | 0.0568 S/m
578.15 K | 0.0874 S/m
588.15 K | 0.131 S/m
598.15 K | 0.179 S/m
618.15 K | 0.36 S/m
638.15 K | 0.646 S/m
681.15 K | 1.86 S/m
717.15 K | 3.93 S/m
739.15 K | 5.57 S/m
756.65 K | 7.13 S/m
814.65 K | 14.4 S/m
814.95 K | 14.4 S/m
858.65 K | 21.9 S/m
879.15 K | 26.3 S/m
893.15 K | 28.8 S/m
936.15 K | 38.8 S/m
970.15 K | 47 S/m
974.65 K | 48.1 S/m
981.15 K | 49.8 S/m
1005.1 K | 55.4 S/m
1030.2 K | 61.4 S/m
1062.2 K | 69.2 S/m
1078.2 K | 73.5 S/m and 74.2 S/m
1092.2 K | 76.8 S/m
1100.2 K | 79.2 S/m
1110.2 K | 81.2 S/m
1114.2 K | 82.8 S/m
1128.2 K | 85.7 S/m
1131.2 K | 87.1 S/m
1143.2 K | 89 S/m
1144.7 K | 90.3 S/m
1163.2 K | 93.5 S/m
1167.2 K | 95.9 S/m
1183.7 K | 100 S/m
1195.7 K | 103 S/m
1214.2 K | 107 S/m
1225.2 K | 110 S/m
1236.2 K | 113 S/m
1245.7 K | 115 S/m
1259.7 K | 118 S/m
1279.7 K | 122 S/m
1297.2 K | 126 S/m
1306.2 K | 127 S/m
1316.7 K | 129 S/m
1324.2 K | 131 S/m
1341.7 K | 134 S/m
1350.2 K | 135 S/m
1359.7 K | 137 S/m
1376.7 K | 139 S/m
1386.7 K | 141 S/m
1399.2 K | 142 S/m
1406.2 K | 143 S/m
1414.2 K | 144 S/m
1421.2 K | 145 S/m
